Data on 36 molecules can be found in PubChem BioAssay (NCI).

Several values for one entry are separate records, joined by “and”; a condition that tells them apart may be missing. Identical values can stand only once.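 Compound exposure: 48 hours, 5 concentrations, 96-well plates. The concentration for 50% growth inhibition is given as GI50. TGI denotes the concentration required for complete inhibition of growth.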

The test system of this test is MDA-MB-468 breast. Briefly: NCI-60 cell line screen, 48 h.
For the molecule `CCCCCCCCCCCCCC1=NC(C)(C)CN1C(C)C`, the GI50 is 1520 nM and the TGI stood at 2940 nM.
Turning to `Cc1nc2c(-c3cnc(N)nc3)nc(N3CCOCC3)nc2n1C(C)C`, the GI50 was 105 nM and 73.4 nM; the TGI is 647 nM and 398 nM.
`NC(=O)c1c(NC(=O)c2ccc(C3CCCCC3)cc2)sc2c1CCC(=O)C2`: the GI50 was 297 nM and the TGI turned out to be 1430 nM.
As to `CCn1c(-c2nonc2N)nc2c(C#CC(C)(C)O)nc(OC[C@H](N)c3ccccc3)cc21`, the GI50 is 2950 nM and the TGI was found to be 6730 nM.
For `O=C(Cc1ccc(/C=C/C(=O)c2ncc[nH]2)cc1)Nc1cc(F)c(F)c(F)c1`, the GI50 was 1110 nM and the TGI was found to be 4530 nM.
The corresponding values for `N#Cc1c(NN)n(C2OC(CO)C(O)C2O)c2ncnc(N)c12` (configuration not stated) are 10.5 nM and 59.4 nM.
The corresponding values for `Cc1ccc(C)c(C2=C(c3cn(C)c4ccccc34)C(=O)NC2=O)c1` are 24300 nM and greater than 25000 nM.
The like results for `CS(=O)c1nccc(-c2c(-c3ccc(F)c(OCc4ccc(F)cc4)c3)nc3sccn23)n1` (configuration not stated) were, in that order, 1950 nM and 4330 nM.
Consider `CCC(C)n1ncn(-c2ccc(N3CCN(c4ccc(OCC5COC(Cn6cncn6)(c6ccc(Cl)cc6Cl)O5)cc4)CC3)cc2)c1=O` (configuration not stated), for which the GI50 is 7070 nM and the TGI was greater than 100000 nM.
As for `CCN(CC)CCC(CNc1ccnc2cc(Cl)ccc12)c1ccc(OC)cc1` (configuration not stated), the GI50 is 1990 nM; the TGI is 4770 nM and 5300 nM.
With `[Cl][Hg][c]1cc(Br)cc(Br)c1`, the GI50 was 1370 nM and the TGI is 3020 nM.
The corresponding values for `CCN(CC)CCOc1ccc(-c2nc3cc(Cl)ccc3s2)cc1` are 1160 nM and 2460 nM.
Turning to `O=C1NC(=O)C(c2cnc3ccccn23)=C1c1cn2c3c(cc(F)cc13)CN(C(=O)N1CCCCC1)CC2`, the GI50 was 4470 nM and the TGI turned out to be 29900 nM.
`CCN(CC)c1ccc2c(c1)OC(N)=C(C#N)C2c1cc(OC)c2c(c1)OCO2` (configuration not stated): the GI50 is 32.8 nM and the TGI is 2970 nM.
The corresponding values for `Clc1nc2ccccc2nc1CI` are 2990 nM and 8670 nM.
With `COc1cc(C2CC(c3cccc(Br)c3)=NN2C(C)=O)cc(OC)c1OC` (configuration not stated), the GI50 is 215 nM and the TGI is greater than 100000 nM.
The corresponding values for `COc1ccc(/C=C(/C(=O)N2CCN(c3ccccc3)CC2)c2cc(OC)c(OC)c(OC)c2)cc1O` are 575 nM and greater than 100000 nM.
On to `C=COCCCOc1ccccc1`, for which the GI50 is greater than 100000 nM and the TGI is greater than 100000 nM.
As for `C=C1CC[C@@H]2[C@](C)(COC(C)=O)[C@H](OC(C)=O)CC[C@@]2(C)[C@@H]1CC(Sc1ccccc1)C1=CCOC1=O` (some centres not stated), the GI50 is 1410 nM and the TGI was 3260 nM.
The like results for `Cn1nc(N)c2cc([C@@H]3Nc4ccc5[nH]ncc5c4[C@H]4C5CCC(C5)[C@@H]34)ccc21` (some centres not stated) were, in that order, 235 nM and 3340 nM.
The corresponding values for `CC(C)=CCNc1ncnc2c1ncn2C1OC(CO)C(O)C1O` (configuration not stated) are 370 nM and 1780 nM.
The corresponding values for `O=C(Nc1nc2ccc(C(F)(F)F)cc2s1)c1cc(Cl)ccc1O` are 1400 nM and 13700 nM.
As to `CN1CCN(CCOc2ccc(-c3cnc4c(-c5ccccc5F)cnn4c3)cc2)CC1`, the GI50 is 1650 nM and the TGI stood at 3360 nM.
The corresponding values for `Cn1c2ccccc2c2c3c(c4c5cc(Br)ccc5n(C)c4c21)C(=O)N(O)C3=O` are 213 nM and 510 nM.
The like results for `O=C(CNc1ccc(Cl)cc1)Nc1ccc(-c2nc3ccccc3s2)cc1` were, in that order, 37.5 nM and 386 nM.
The like results for `CC(C)=CC/C=C(/C)[C@H]1CC[C@]2(C)[C@@H]1CC[C@@H]1[C@@]3(C)CCCNC(C)(C)[C@@H]3CC[C@]12C` were, in that order, 1710 nM and 3250 nM.
For `CC(C)CCN1c2nc(Nc3cc(F)c(O)c(F)c3)ncc2N(C)C(=O)C1C` (configuration not stated), the GI50 is 5020 nM and the TGI turned out to be 23900 nM.
Take `O=C1/C(=C/c2ccc(Br)cc2)COc2ccc(O)c(O)c21`: the GI50 is 1370 nM and the TGI came to 3200 nM.
The like results for `CCCCCCNC(=O)c1cc(NCc2cc(O)ccc2O)ccc1O` were, in that order, 6530 nM and 28900 nM.
The like results for `COc1ccc(C(C)=O)cc1N1C(=O)C2C(C1=O)C1(c3ccccc3)C(=O)C2(c2ccccc2)C(c2ccc(C)cc2)=C1c1ccc(C)cc1` (configuration not stated) were, in that order, greater than 100000 nM and greater than 100000 nM.
The corresponding values for `O=C(Nc1ccc(Cl)cc1F)c1ccccc1O` are 2310 nM and 6420 nM.
On to `COc1ccc(CCOc2cc3c(cc2OC)CCN(C(=O)NCc2cocn2)C3c2ccc(C)cc2C)cc1` (configuration not stated), for which the GI50 is 289 nM and the TGI is 1300 nM.
On to `CCN(CC)CCCC(CNc1ccnc2cc(Cl)ccc12)c1ccc(Cl)cc1` (configuration not stated), for which the GI50 is 992 nM and 419 nM; the TGI was 2550 nM and 1490 nM.
Consider `CCN1CCN(C(c2ccc(C(F)(F)F)cc2)c2ccc3cccnc3c2O)CC1` (configuration not stated), for which the GI50 is 2480 nM and the TGI was 6480 nM.
In the case of `COc1ccc(CN2C(=O)/C(=C\C(=O)c3ccc(OCCN4CCCCC4)cc3)c3ccccc32)cc1`, the GI50 is 1700 nM and the TGI was found to be 3680 nM.
Turning to `N#CC(=C1C=CC(=NO)C=C1)c1ccccc1`, the GI50 is 289 nM and the TGI stood at 2860 nM.
